Measurements published in publication PMC10216478, “Development of a Non-Peptide Angiotensin II Type 1 Receptor Ligand by Structural Modification of Olmesartan as a Biased Agonist” (Biomedicines, 2023).
Positions count from the first letter of the chain named.

Columns and labels:
Format in all cases: cell-based
AT1 wild-type receptor = biological target: T1, AT1 wild-type receptor (Rattus norvegicus, UniProt P25095); experiment: Immunoblotting of ERK 1/2 activation in COS7 cells overexpressing AT1 wild-type receptor; settings: for ERK1/2 activation: AT1 wild-type receptor, COS7 cells, 1 µM ligands or 0.1 µM Ang II, 10 min, n = 5, vs. (-); for Mode of action in terms of ERK1/2 activation: authors' classification from ERK1/2 activation
T1 construct: expressed in transfected cells; host or cells: COS7
T1 sequence (P25095 1-359): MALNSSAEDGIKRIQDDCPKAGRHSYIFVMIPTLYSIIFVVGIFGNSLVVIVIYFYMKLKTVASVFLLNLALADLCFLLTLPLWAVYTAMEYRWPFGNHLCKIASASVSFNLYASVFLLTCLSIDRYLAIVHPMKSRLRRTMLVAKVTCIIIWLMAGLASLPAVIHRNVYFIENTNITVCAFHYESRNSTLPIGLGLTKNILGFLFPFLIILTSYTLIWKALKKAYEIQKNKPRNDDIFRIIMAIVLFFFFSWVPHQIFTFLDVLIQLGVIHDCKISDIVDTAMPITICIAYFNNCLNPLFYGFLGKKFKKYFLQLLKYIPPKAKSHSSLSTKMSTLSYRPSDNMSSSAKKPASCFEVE
Experimental: (§1) The synthetic rat AT1 receptor gene, which was cloned in the shuttle expression vector pMT-2, was used for expression and mutagenesis, as described previously. […] In the experiments, cells were grown without a cell-growth supplement. To express the AT1 receptor protein, 10 µg of purified plasmid DNA per 10^7 cells was used in the transfection. Wild-type and mutated AT1 receptors were transiently transfected into cells using Lipofectamine 2000 liposomal reagent (Roche Applied Science, Penzberg, Germany). Cells were plated and grown and were 70–90% confluent at the time of transfection. We incubated plasmid DNA (10 µg)–lipid (10 µL) complexes for 5 min at room temperature and added and incubated the complexes with cells for 24 h. We then analyzed the parameters in transfected cells. […] Transfected cells that had been cultured for 48–72 h were harvested. Cell membranes were prepared using the nitrogen Parr bomb disruption or freeze–thaw methods.
(§2) In in vitro studies, ERK 1/2 activation by 1 µM ligands or 0.1 µM Ang II incubated for 10 min was measured using COS7 cells that overexpressed AT1 wild-type and mutant receptors. ERK activity was measured in cells maintained for 18 h in DMEM containing 0.1% serum. At the end of the stimulation, the culture medium was removed by aspiration, the cells were washed with ice-cold phosphate-buffered saline, and the dishes were frozen in liquid nitrogen. The cells were scraped using a scraper after melting, and the scraped cells were transferred to a tube. We homogenized the cells in lysis buffer plus protease inhibitors and determined the protein concentration using the bicinchoninic acid method. […] We fractionated total proteins using sodium dodecyl sulfate polyacrylamide gel electrophoresis; we then transferred the proteins to a Hybond nitrocellulose membrane and blocked the blotted membranes with 10% bovine serum albumin in tris-buffered saline buffer (50 mM Tris–HCl pH 7.6, 150 mM NaCl) for 1 h at room temperature. […] An enhanced chemiluminescent substrate system (Amersham, Buckinghamshire, UK) was used. The signal was independently quantified by digital image analysis (ImageJ, National Institutes of Health, Bethesda, MD, USA).

AT1 L112A receptor = biological target: T2, AT1 L112A receptor (Rattus norvegicus, UniProt P25095, L112A); experiment: Immunoblotting of ERK 1/2 activation in COS7 cells overexpressing AT1-L112A receptor; settings: 1 µM ligands or 0.1 µM Ang II, 10 min, n = 5, vs. (-)
T2 construct: expressed in transfected cells; host or cells: COS7
T2 sequence (P25095 1-359 L112A): T1 sequence (P25095 1-359) with L112A
Experimental: as §1, §2

AT1 Q257A receptor = biological target: T3, AT1 Q257A receptor (Rattus norvegicus, UniProt P25095, Q257A); experiment: IP production assay in COS7 cells expressing AT1-Q257A receptor; settings: 1 µM ligands or 0.1 µM Ang II, 30 min, n = 5, vs. (-)
T3 construct: expressed in transfected cells; host or cells: COS7
T3 sequence (P25095 1-359 Q257A): T1 sequence (P25095 1-359) with Q257A
Experimental: as §1
Ligand (such as agonist or antagonist)-induced IP production through the AT1 receptor in transfected COS7 cells transiently expressing the AT1 receptor was measured to evaluate cell signaling as a second messenger for controlling blood pressure, since the increases in the intracellular Ca^2+ concentration were the result of IP accumulation, which indicated vasoconstriction. As a surrogate model with higher levels of AT1 receptor expression, COS7 cells are suitable for IP measurement because it is easy to detect differences in IP production. Cells were labeled for 24 h with [^3H]-myoinositol at 37 °C in DMEM containing 10% FBS. Next, the cells were washed with buffer 3 times and incubated with a medium containing 10 mM LiCl for 20 min; 0.1 µM Ang II or 1 µM ligands were added and incubation was continued for another 30 min at 37 °C. After incubation, the medium was removed, and total soluble IP was extracted from the cells using the perchloric acid extraction method, as described previously. Cells were plated at a field density of 5 × 10^3 cells/cm^2 in 60 mm dishes and cultured in a fresh growth medium at 37 °C in a DMEM 5% CO2 incubator. […] The culture medium was changed 48 h after transfection and 1.5 mL of 1 μCi/mL of [^3H]-myoinositol was added to each 60-mm dish at 37 °C in DMEM containing 10% FBS. After labeling, the cells were washed with buffer 3 times and incubated with a medium containing 10 mM LiCl for 20 min. The indicated concentration of ligands was added and incubation was continued for an additional 30 min at 37 °C. After incubation, the medium was removed, and total soluble IP was extracted from the cells using the perchloric acid extraction method. Total IP production was expressed as the sum of radioactivity, as described previously.

Row | ERK1/2 activation (AT1 wild-type receptor) | ERK1/2 activation (AT1 L112A receptor) | Mode of action in terms of ERK1/2 activation (AT1 wild-type receptor) | Structure (SMILES) | Effect on IP production (AT1 Q257A receptor)
1 | did not change ERK1/2 activation | did not change ERK1/2 activation |  | CCCc1nc(C(C)(C)O)c(C(=O)O)n1Cc1ccc(-c2ccccc2-c2nnn[nH]2)cc1 [Olmesartan, olmesartan] | significant reduction in basal IP production levels
2 | but not R239470, activated ERK1/2 | but not R239470, activated ERK1/2 |  | CCCc1nc(C(C)(C)O)c(C(N)=O)n1Cc1ccc(-c2ccccc2-c2nnn[nH]2)cc1 [R239470] | none of the compounds (R239470, R781253, and R794847) affected IP production
3 | activated ERK1/2 | activated ERK1/2 | agonists in terms of ERK1/2 activation | CCCc1nc(C(C)(C)O)c(C(=O)O)n1Cc1ccc(-c2cc(Cc3ccc(O)cc3)ccc2-c2nnn[nH]2)cc1 [R781253] | none of the compounds (R239470, R781253, and R794847) affected IP production
4 | activated ERK1/2 | activated ERK1/2 | agonists in terms of ERK1/2 activation | CCCc1nc(C(C)(C)O)c(C(N)=O)n1Cc1ccc(-c2cc(Cc3ccc(O)cc3)ccc2-c2nnn[nH]2)cc1 [R794847] | none of the compounds (R239470, R781253, and R794847) affected IP production
